According to ChEMBL document CHEMBL1154382, “Preliminary SAR analysis of novel antiproliferative N(6),5'-bis-ureidoadenosine derivatives” (2009):

Experiments:
Type in all cases: functional
Settings in all cases: values are per cent of control
SK-MEL-5 = experiment: Antiproliferative activity against human SK-MEL-5 cells at 10 uM assessed as cell growth inhibition relative to control
EKVX = experiment: Antiproliferative activity against human EKVX cells at 10 uM assessed as cell growth inhibition relative to control
HOP-62 = experiment: Antiproliferative activity against human HOP62 cells at 10 uM assessed as cell growth inhibition relative to control
PC-3 = experiment: Antiproliferative activity against human PC3 cells at 10 uM assessed as cell growth inhibition relative to control
SK-OV-3 = experiment: Antiproliferative activity against human SKOV3 cells at 10 uM assessed as cell growth inhibition relative to control
HL-60(TB) = experiment: Antiproliferative activity against human HL-60(TB) cells at 10 uM assessed as cell growth inhibition relative to control
HCC 2998 = experiment: Antiproliferative activity against human HCC2998 cells at 10 uM assessed as cell growth inhibition relative to control
OVCAR-3 = experiment: Antiproliferative activity against human OVCAR-3 cells at 10 uM assessed as cell growth inhibition relative to control
ACHN = experiment: Antiproliferative activity against human ACHN cells at 10 uM assessed as cell growth inhibition relative to control
KM12 = experiment: Antiproliferative activity against human KM12 cells at 10 uM assessed as cell growth inhibition relative to control
A549 = experiment: Antiproliferative activity against human A549 cells at 10 uM assessed as cell growth inhibition relative to control
[1] = Antiproliferative activity against human Hs 578T cells at 10 uM assessed as cell growth inhibition relative to control
MOLT-4 = experiment: Antiproliferative activity against human MOLT4 cells at 10 uM assessed as cell growth inhibition relative to control
SF-268 = experiment: Antiproliferative activity against human SF268 cells at 10 uM assessed as cell growth inhibition relative to control
BT-549 = experiment: Antiproliferative activity against human BT549 cells at 10 uM assessed as cell growth inhibition relative to control
T47D = experiment: Antiproliferative activity against human T47D cells at 10 uM assessed as cell growth inhibition relative to control
SW-620 = experiment: Antiproliferative activity against human SW620 cells at 10 uM assessed as cell growth inhibition relative to control
DU-145 = experiment: Antiproliferative activity against human DU145 cells at 10 uM assessed as cell growth inhibition relative to control
U-251 = experiment: Antiproliferative activity against human U251 cells at 10 uM assessed as cell growth inhibition relative to control
OVCAR-5 = experiment: Antiproliferative activity against human OVCAR5 cells at 10 uM assessed as cell growth inhibition relative to control
LOX IMVI = experiment: Antiproliferative activity against human LOXIMVI cells at 10 uM assessed as cell growth inhibition relative to control
CCRF-CEM = experiment: Antiproliferative activity against human CCRF-CEM cells at 10 uM assessed as cell growth inhibition relative to control
OVCAR-4 = experiment: Antiproliferative activity against human OVCAR4 cells at 10 uM assessed as cell growth inhibition relative to control
MDA-MB-231 = experiment: Antiproliferative activity against human MDA-MB-231 cells at 10 uM assessed as cell growth inhibition relative to control
Malme-3M = experiment: Antiproliferative activity against human MALME-3M cells at 10 uM assessed as cell growth inhibition relative to control
TK-10 = experiment: Antiproliferative activity against human TK10 cells at 10 uM assessed as cell growth inhibition relative to control
HOP-92 = experiment: Antiproliferative activity against human HOP92 cells at 10 uM assessed as cell growth inhibition relative to control
NCI-H226 = experiment: Antiproliferative activity against human NCI-H226 cells at 10 uM assessed as cell growth inhibition relative to control
HT-29 = experiment: Antiproliferative activity against human HT-29 cells at 10 uM assessed as cell growth inhibition relative to control
SNB-19 = experiment: Antiproliferative activity against human SNB19 cells at 10 uM assessed as cell growth inhibition relative to control
OVCAR-8 = experiment: Antiproliferative activity against human OVCAR8 cells at 10 uM assessed as cell growth inhibition relative to control
NCI-H460 = experiment: Antiproliferative activity against human NCI-H460 cells at 10 uM assessed as cell growth inhibition relative to control
SK-MEL-2 = experiment: Antiproliferative activity against human SK-MEL-2 cells at 10 uM assessed as cell growth inhibition relative to control
SNB-75 = experiment: Antiproliferative activity against human SNB75 cells at 10 uM assessed as cell growth inhibition relative to control
786-0 = experiment: Antiproliferative activity against human 786-0 cells at 10 uM assessed as cell growth inhibition relative to control
NCI-H522 = experiment: Antiproliferative activity against human NCI-H522 cells at 10 uM assessed as cell growth inhibition relative to control
SF-539 = experiment: Antiproliferative activity against human SF539 cells at 10 uM assessed as cell growth inhibition relative to control
UACC-257 = experiment: Antiproliferative activity against human UACC257 cells at 10 uM assessed as cell growth inhibition relative to control
K562 = experiment: Antiproliferative activity against human K562 cells at 10 uM assessed as cell growth inhibition relative to control
[2] = Antiproliferative activity against human […] cells at 10 uM assessed as cell growth inhibition relative to control
MDA-MB-468 = experiment: Antiproliferative activity against human MDA-MB-468 cells at 10 uM assessed as cell growth inhibition relative to control
UO-31 = experiment: Antiproliferative activity against human UO31 cells at 10 uM assessed as cell growth inhibition relative to control
SN12C = experiment: Antiproliferative activity against human SN12C cells at 10 uM assessed as cell growth inhibition relative to control
HCT-116 = experiment: Antiproliferative activity against human HCT116 cells at 10 uM assessed as cell growth inhibition relative to control
NCI-H23 = experiment: Antiproliferative activity against human NCI-H23 cells at 10 uM assessed as cell growth inhibition relative to control
HCT-15 = experiment: Antiproliferative activity against human HCT15 cells at 10 uM assessed as cell growth inhibition relative to control
A498 = experiment: Antiproliferative activity against human A498 cells at 10 uM assessed as cell growth inhibition relative to control
RXF 393 = experiment: Antiproliferative activity against human RXF393 cells at 10 uM assessed as cell growth inhibition relative to control
SK-MEL-28 = experiment: Antiproliferative activity against human SK-MEL-28 cells at 10 uM assessed as cell growth inhibition relative to control
SF-295 = experiment: Antiproliferative activity against human SF295 cells at 10 uM assessed as cell growth inhibition relative to control
IGROV-1 = experiment: Antiproliferative activity against human IGROV1 cells at 10 uM assessed as cell growth inhibition relative to control
UACC-62 = experiment: Antiproliferative activity against human UACC62 cells at 10 uM assessed as cell growth inhibition relative to control
M14 = experiment: Antiproliferative activity against human M14 cells at 10 uM assessed as cell growth inhibition relative to control
MCF7 = experiment: Antiproliferative activity against human MCF7 cells at 10 uM assessed as cell growth inhibition relative to control
COLO 205 = experiment: Antiproliferative activity against human COLO205 cells at 10 uM assessed as cell growth inhibition relative to control
NCI-H322M = experiment: Antiproliferative activity against human NCI-H322M cells at 10 uM assessed as cell growth inhibition relative to control
CAKI-1 = experiment: Antiproliferative activity against human Caki1 cells at 10 uM assessed as cell growth inhibition relative to control

SMILES: CCOC(=O)C[C@H]1[C@@H](O[Si](C)(C)C(C)(C)C)[C@H](n2cnc3c(N)ncnc32)O[C@@H]1CO
- growth, % of control at 10 µM (SK-MEL-5): 81%
- growth, % of control at 10 µM (EKVX): 75%
- growth, % of control at 10 µM (HOP-62): 91%
- growth, % of control at 10 µM (PC-3): 85%
- growth, % of control at 10 µM (SK-OV-3): 103%
- growth, % of control at 10 µM (HL-60(TB)): 89%
- growth, % of control at 10 µM (HCC 2998): 104%
- growth, % of control at 10 µM (OVCAR-3): 98%
- growth, % of control at 10 µM (ACHN): 102%
- growth, % of control at 10 µM (KM12): 109%
- growth, % of control at 10 µM (A549): 100%
- growth, % of control at 10 µM [1]: 102%
- growth, % of control at 10 µM (MOLT-4): 74%
- growth, % of control at 10 µM (SF-268): 98%
- growth, % of control at 10 µM (BT-549): 79%
- growth, % of control at 10 µM (T47D): 82%
- growth, % of control at 10 µM (SW-620): 103%
- growth, % of control at 10 µM (DU-145): 93%
- growth, % of control at 10 µM (U-251): 99%
- growth, % of control at 10 µM (OVCAR-5): 101%
- growth, % of control at 10 µM (LOX IMVI): 92%
- growth, % of control at 10 µM (CCRF-CEM): 83%
- growth, % of control at 10 µM (OVCAR-4): 97%
- growth, % of control at 10 µM (MDA-MB-231): 90%
- growth, % of control at 10 µM (Malme-3M): 93%
- growth, % of control at 10 µM (TK-10): 94%
- growth, % of control at 10 µM (HOP-92): 81%
- growth, % of control at 10 µM (NCI-H226): 90%
- growth, % of control at 10 µM (HT-29): 98%
- growth, % of control at 10 µM (SNB-19): 103%
- growth, % of control at 10 µM (OVCAR-8): 103%
- growth, % of control at 10 µM (NCI-H460): 101%
- growth, % of control at 10 µM (SK-MEL-2): 106%
- growth, % of control at 10 µM (SNB-75): 75%
- growth, % of control at 10 µM (786-0): 97%
- growth, % of control at 10 µM (NCI-H522): 92%
- growth, % of control at 10 µM (SF-539): 91%
- growth, % of control at 10 µM (UACC-257): 105%
- growth, % of control at 10 µM (K562): 84%
- growth, % of control at 10 µM [2]: 99%
- growth, % of control at 10 µM (MDA-MB-468): 94%
- growth, % of control at 10 µM (UO-31): 72%
- growth, % of control at 10 µM (SN12C): 85%
- growth, % of control at 10 µM (HCT-116): 94%
- growth, % of control at 10 µM (NCI-H23): 107%
- growth, % of control at 10 µM (HCT-15): 91%
- growth, % of control at 10 µM (A498): 98%
- growth, % of control at 10 µM (RXF 393): 112%
- growth, % of control at 10 µM (SK-MEL-28): 112%
- growth, % of control at 10 µM (SF-295): 97%
- growth, % of control at 10 µM (IGROV-1): 90%
- growth, % of control at 10 µM (UACC-62): 73%
- growth, % of control at 10 µM (M14): 99%
- growth, % of control at 10 µM (MCF7): 89%
- growth, % of control at 10 µM (COLO 205): 109%
- growth, % of control at 10 µM (NCI-H322M): 91%
- growth, % of control at 10 µM (CAKI-1): 92%
